Here are results for 22 compounds from ChEMBL document CHEMBL5665440, “ASAP - In vitro liver microsomal stability” (2024).

Data set [1] is described as follows: Mouse liver microsomal stability of compound in microsomal protein, PBS buffer pH 7.4, NADPH, glucose-6-phosphate and glucose-6-phosphate dehydrogenase media. Aliquotes were taken at 5 time points and after stopping the reaction, supernatants were analyzed using HPLC coupled with a tandem mass spectrometer. The elimination constant, half-life, and intrinsic clearance are determined as results using linear regression analysis. As to conditions: for half-life / microsomal CLint: liver microsomes; for Remaining / Remaining (without cofactor): microsomes. Format: ADME, microsomes, Microsome. In general terms: Microsomes from liver hold many membrane-bound enzymes, among them those of drug oxidation.

Data set [2] in a line: Human liver microsomal stability of compound in microsomal protein, PBS buffer pH 7.4, NADPH, glucose-6-phosphate and glucose-6-phosphate dehydrogenase media. Aliquotes were taken at 5 time points and after stopping the reaction, supernatants were analyzed using HPLC coupled with a tandem mass spectrometer. The elimination constant, half-life, and intrinsic clearance are determined as results using linear regression analysis. The format is ADME, microsomes, Microsome. Conditions: for half-life / microsomal CLint: liver microsomes; for Remaining / Remaining (without cofactor): microsomes.
Wherever Remaining (without cofactor) is given: time not given here.
Wherever Remaining is given: time not given here.

What is called half-life is the time needed for the level to fall by half in the phase considered. A word on the microsomal CLint: it is a measure of how fast metabolising enzymes remove a compound, apart from limits set by blood flow. Lower therefore signals slow turnover. Consider `COCCNC(=O)[C@H](Nc1ccc2c(c1)CNC2)c1cc(Cl)cc(C2CC2)c1`, for which, in data set [1], the half-life came to 2.38 h, the microsomal CLint came to 11.7 µL/min/mg, the Remaining is reported as 84.686% and the “Remaining (without cofactor)” value is recorded as 107.462%. Moreover, in data set [2], the half-life came to 1.42 h, the microsomal CLint came out at 19.7 µL/min/mg, the Remaining is 68.563% and the “Remaining (without cofactor)” value stood at 103.817%.

On to `N#CCCNC(=O)[C@H](Nc1ccc2c(c1)CNC2)c1cc(Cl)cc(C2CC2)c1`, for which, in data set [1], the half-life was over 2.89 h, the microsomal CLint was under 10 µL/min/mg, the Remaining came to 93.147% and the “Remaining (without cofactor)” value is 101.58%. Also, in data set [2], the half-life was over 2.89 h, the microsomal CLint was under 10 µL/min/mg, the Remaining turned out to be 90.394% and the “Remaining (without cofactor)” value turned out to be 113.364%.

For the compound `CNC(=O)[C@H](Nc1ccc2c(c1)CNC2)c1cc(Cl)cc(C2CC2)c1`, in data set [1], the half-life is over 2.89 h, the intrinsic metabolic clearance (microsomal CLint) is under 10 µL/min/mg, the Remaining worked out at 87.863% and the “Remaining (without cofactor)” value is given as 93.167%. Also, in data set [2], the half-life was over 2.89 h, the microsomal CLint was under 10 µL/min/mg, the Remaining stood at 90.859% and the “Remaining (without cofactor)” value is recorded as 112.656%.

Consider `CN(c1ccc2c(c1)CNC2)[C@H](C(=O)NCC(F)F)c1cc(Cl)cc(C2CC2)c1`, for which, in data set [1], the half-life worked out at 2.63 h, the microsomal CLint stood at 10.6 µL/min/mg, the Remaining came out at 80.041% and the “Remaining (without cofactor)” value is 110.954%. For the same compound, in data set [2], the half-life amounted to 1.63 h, the microsomal CLint was 17.1 µL/min/mg, the Remaining is listed as 74.869% and the “Remaining (without cofactor)” value is on record as 95.997%.

For `O=C(Nc1ccc2c(c1)CNC2)c1cccc2[nH]c(C(F)(F)F)cc12`, in data set [1], the half-life was 2.19 h, the intrinsic clearance (microsomal CLint) worked out at 12.7 µL/min/mg, the Remaining is 75.758% and the “Remaining (without cofactor)” value is 108.523%. Further, in data set [2], the half-life amounted to 1.97 h, the microsomal CLint is 14.1 µL/min/mg, the Remaining was determined as 78.018% and the “Remaining (without cofactor)” value is reported as 74.757%.

Regarding `O=C(NCC(F)F)[C@H](Nc1ccc2c(c1)CNC2)c1cc(Br)cc2nc[nH]c12`, in data set [1], the half-life is over 2.89 h, the intrinsic clearance (microsomal CLint) is under 10 µL/min/mg, the Remaining is on record as 93.302% and the “Remaining (without cofactor)” value was found to be 93.905%. For the same compound, in data set [2], the half-life was over 2.89 h, the microsomal CLint was under 10 µL/min/mg, the Remaining is reported as 100.118% and the “Remaining (without cofactor)” value turned out to be 106.151%.

As for `O=C(Nc1ccc2c(c1)CNC2)c1ccc2[nH]cc(C3CCNCC3)c2c1`, in data set [1], the half-life is over 2.89 h, the microsomal CLint was under 10 µL/min/mg, the Remaining is given as 86.057% and the “Remaining (without cofactor)” value was 94.216%. Further, in data set [2], the half-life is over 2.89 h, the intrinsic clearance (microsomal CLint) is under 10 µL/min/mg, the Remaining was found to be 86.755% and the “Remaining (without cofactor)” value was found to be 110.939%.

With `O=C(NCCCF)[C@H](Nc1ccc2c(c1)CNC2)c1cc(Cl)cc(C2CC2)c1`, in data set [1], the half-life was 1.6 h, the microsomal CLint amounted to 17.4 µL/min/mg, the Remaining was 76.547% and the “Remaining (without cofactor)” value was determined as 97.886%. Besides, in data set [2], the half-life is 1.75 h, the intrinsic clearance (microsomal CLint) was determined as 15.9 µL/min/mg, the Remaining turned out to be 77.399% and the “Remaining (without cofactor)” value came to 95.756%.

On to `COCc1cc(Cl)cc([C@H](Nc2ccc3c(c2)CNC3)C(=O)NCC(F)F)c1`, for which, in data set [1], the half-life was over 2.89 h, the intrinsic metabolic clearance (microsomal CLint) was under 10 µL/min/mg, the Remaining is reported as 97.4% and the “Remaining (without cofactor)” value stood at 108.672%. In data set [2], the half-life is over 2.89 h, the microsomal CLint is under 10 µL/min/mg, the Remaining is on record as 94.228% and the “Remaining (without cofactor)” value stood at 112.017%.

For the compound `CO[C@H]1C[C@H](n2ncc3c(C(=O)Nc4ccc5c(c4)CNC5)cc(Cl)cc32)C1`, in data set [1], the half-life is over 2.89 h, the microsomal CLint is under 10 µL/min/mg, the Remaining is 91.321% and the “Remaining (without cofactor)” value turned out to be 100.159%. Further, in data set [2], the half-life is over 2.89 h, the microsomal CLint was under 10 µL/min/mg, the Remaining was 104.617% and the “Remaining (without cofactor)” value is reported as 107.995%.

Consider `Cn1cc2c(C(=O)Nc3ccc4c(c3)CNC4)cc(F)cc2n1`, for which, in data set [1], the half-life was found to be 1.53 h, the microsomal CLint was 18.2 µL/min/mg, the Remaining was found to be 76.341% and the “Remaining (without cofactor)” value was determined as 103.175%. Also, in data set [2], the half-life is over 2.89 h, the microsomal CLint is under 10 µL/min/mg, the Remaining came to 100.772% and the “Remaining (without cofactor)” value is listed as 105.44%.

For `O=C(NCC(F)F)[C@H](Nc1cc2c(cc1Br)CNC2)c1cc(Cl)cc(C2CC2)c1`, in data set [1], the half-life turned out to be 1.21 h, the microsomal CLint was determined as 22.9 µL/min/mg, the Remaining is on record as 69.524% and the “Remaining (without cofactor)” value came to 97.036%. In data set [2], the half-life was 1.08 h, the microsomal CLint is 25.9 µL/min/mg, the Remaining is given as 67.209% and the “Remaining (without cofactor)” value worked out at 94.723%.

`COc1ccc(-c2nc3c(C(=O)Nc4ccc5c(c4)CNC5)cc(F)cc3[nH]2)nn1`: in data set [1], the half-life was 1.64 h, the intrinsic clearance (microsomal CLint) turned out to be 16.9 µL/min/mg, the Remaining is listed as 73.587% and the “Remaining (without cofactor)” value stood at 92.469%. For the same compound, in data set [2], the half-life was over 2.89 h, the microsomal CLint is under 10 µL/min/mg, the Remaining worked out at 87.708% and the “Remaining (without cofactor)” value is 99.462%.

With `CCCCNC(=O)[C@H](Nc1ccc2c(c1)CNC2)c1cc(Cl)cc(C2CC2)c1`, in data set [1], the half-life worked out at 1.43 h, the microsomal CLint is 19.5 µL/min/mg, the Remaining was 73.231% and the “Remaining (without cofactor)” value is given as 102.386%. In addition, in data set [2], the half-life amounted to 1.72 h, the microsomal CLint amounted to 16.2 µL/min/mg, the Remaining is on record as 75.607% and the “Remaining (without cofactor)” value is recorded as 97.272%.

With `COc1cc(Cl)cc([C@H](Nc2ccc3c(c2)CNC3)C(=O)NCC(F)F)c1`, in data set [1], the half-life was 2.16 h, the microsomal CLint was 12.9 µL/min/mg, the Remaining is 81.928% and the “Remaining (without cofactor)” value is on record as 96.342%. Besides, in data set [2], the half-life is over 2.89 h, the microsomal CLint is under 10 µL/min/mg, the Remaining was 91.954% and the “Remaining (without cofactor)” value stood at 107.924%.

Consider `O=C(Nc1cc(Br)c2c(c1)CNC2)c1cc(F)cc2[nH]ncc12`, for which, in data set [1], the half-life is 0.192 h, the microsomal CLint amounted to 145 µL/min/mg, the Remaining was 10.289% and the “Remaining (without cofactor)” value is listed as 104.117%. Moreover, in data set [2], the half-life amounted to 2.05 h, the microsomal CLint is 13.6 µL/min/mg, the Remaining was found to be 77.163% and the “Remaining (without cofactor)” value stood at 100.794%.

`O=C1Cc2c(cc(F)cc2C(=O)Nc2ccc3c(c2)CNC3)N1`: in data set [1], the half-life was over 2.89 h, the microsomal CLint is under 10 µL/min/mg, the Remaining was found to be 87.64% and the “Remaining (without cofactor)” value is reported as 93.435%. Also, in data set [2], the half-life was over 2.89 h, the microsomal CLint is under 10 µL/min/mg, the Remaining is reported as 99% and the “Remaining (without cofactor)” value worked out at 112.283%.

`O=C(NCC(F)F)[C@H](Nc1cnc2c(c1)CNC2)c1cc(Cl)cc(C2CC2)c1`: in data set [1], the half-life is over 2.89 h, the microsomal CLint was under 10 µL/min/mg, the Remaining turned out to be 87.443% and the “Remaining (without cofactor)” value came to 105.088%. Moreover, in data set [2], the half-life was over 2.89 h, the microsomal CLint was under 10 µL/min/mg, the Remaining is reported as 91.952% and the “Remaining (without cofactor)” value came out at 110.51%.

`Cc1cc([C@H](Nc2ccc3c(c2)CNC3)C(=O)NCC(F)F)cc(C(F)(F)F)c1`: in data set [1], the half-life came to 2.49 h, the intrinsic clearance (microsomal CLint) came to 11.2 µL/min/mg, the Remaining turned out to be 85.983% and the “Remaining (without cofactor)” value was 88.687%. For the same compound, in data set [2], the half-life is over 2.89 h, the intrinsic clearance (microsomal CLint) is under 10 µL/min/mg, the Remaining was determined as 89.032% and the “Remaining (without cofactor)” value is on record as 105.687%.

In the case of `O=C(NCC(F)F)[C@H](Nc1ccc2c(c1)CNC2)c1cc(Cl)cc2c1CCC2`, in data set [1], the half-life came out at 0.882 h, the microsomal CLint was 31.6 µL/min/mg, the Remaining is 60.623% and the “Remaining (without cofactor)” value stood at 103.851%. Moreover, in data set [2], the half-life amounted to 1.99 h, the microsomal CLint was determined as 14 µL/min/mg, the Remaining was determined as 80.194% and the “Remaining (without cofactor)” value came out at 105.323%.

For `Cn1ncc2c(C(=O)Nc3ccc4c(c3)CNC4)cc(Cl)cc21`, in data set [1], the half-life was determined as 1.09 h, the microsomal CLint turned out to be 25.5 µL/min/mg, the Remaining turned out to be 63.701% and the “Remaining (without cofactor)” value amounted to 92.242%. For the same compound, in data set [2], the half-life is over 2.89 h, the microsomal CLint was under 10 µL/min/mg, the Remaining turned out to be 91.353% and the “Remaining (without cofactor)” value was determined as 101.456%.

Take `COc1cc(C#N)cc([C@H](Nc2ccc3c(c2)CNC3)C(=O)NCC(F)F)c1`: in data set [1], the half-life was over 2.89 h, the intrinsic clearance (microsomal CLint) was under 10 µL/min/mg, the Remaining is listed as 90.033% and the “Remaining (without cofactor)” value was determined as 104.77%. In data set [2], the half-life is over 2.89 h, the microsomal CLint is under 10 µL/min/mg, the Remaining is reported as 93.073% and the “Remaining (without cofactor)” value was 104.062%.
